We go through 10 molecules from patent publication US10004701B2, “Methods and compositions for treating infection” (UNIVERSITY OF ROCHESTER, priority 2012, dated 2018).

Where a name gives a salt, the structure may show the parent alone. Read-outs that look alike come from different tables or passages of the source.

Test in all cases: AK assay 384-well format, Prestwick library screening
In one experiment the test system is E. faecium. Format: cell-based, Enterococcus faecium. Conditions: 50 μM final drug concentration; for fold induction at 50 µM: Enterococcus faecium, 3 h.
Experiment [1] concerns S. aureus strain USA300-0114. It is filed as cell-based, Staphylococcus aureus. Conditions: 50 μM final drug concentration; for fold induction at 50 µM: Staphylococcus aureus, USA300, 3 h.
In the next experiment the test system is K. pneumoniae. Format: cell-based, Klebsiella pneumoniae. Conditions: 50 μM final drug concentration; for fold induction at 50 µM: Klebsiella pneumoniae, 3 h.
The subject of experiment [2] is A. baumannii strain 98-37-09. It is filed as cell-based, Acinetobacter baumannii. Conditions: 50 μM final drug concentration; for fold induction at 50 µM: Acinetobacter baumannii, 983709, 3 h.
The test system of a further experiment is P. aeruginosa. Format: cell-based, Pseudomonas aeruginosa. Conditions: 50 μM final drug concentration; for fold induction at 50 µM: Pseudomonas aeruginosa, 3 h.
The next experiment deals with E. cloacae. Format: cell-based, Enterobacter cloacae. Conditions: 50 μM final drug concentration; for fold induction at 50 µM: Enterobacter cloacae, 3 h.
The test system of the next experiment is E. coli. Format: cell-based, Escherichia coli. Conditions: 50 μM final drug concentration; for fold induction at 50 µM: Escherichia coli, 3 h.
Setting [3] is: planktonic, […], read-out: AK-based Prestwick Library Screening Results, E. faecium (fold increase in extracellular AK activity).
The mark [4] stands for this setting: planktonic, […], read-out: AK-based Prestwick Library Screening Results, S. aureus (fold increase in extracellular AK activity).
Setting [5] is: planktonic, […], read-out: AK-based Prestwick Library Screening Results, K. pneumoniae (fold increase in extracellular AK activity).
The mark [6] stands for this setting: planktonic, […], read-out: AK-based Prestwick Library Screening Results, A. baumannii (fold increase in extracellular AK activity).
The mark [7] stands for this setting: planktonic, […], read-out: AK-based Prestwick Library Screening Results, P. aeruginosa (fold increase in extracellular AK activity).
The mark [8] stands for this setting: planktonic, […], read-out: AK-based Prestwick Library Screening Results, E. cloacae (fold increase in extracellular AK activity).
Setting [9] is: planktonic, […], read-out: AK-based Prestwick Library Screening Results, E. coli (fold increase in extracellular AK activity).
[10] abbreviates: 384-well format, cutoff for positive-scoring molecules 3-fold increase, read-out: AK-based Prestwick Library Screening Results, E. faecium (increase in extracellular AK activity).
[11] abbreviates: 384-well format, cutoff for positive-scoring molecules 3-fold increase, read-out: AK-based Prestwick Library Screening Results, S. aureus (increase in extracellular AK activity).
The mark [12] stands for this setting: 384-well format, cutoff for positive-scoring molecules 3-fold increase, read-out: AK-based Prestwick Library Screening Results, K. pneumoniae (increase in extracellular AK activity).
[13] abbreviates: 384-well format, cutoff for positive-scoring molecules 3-fold increase, read-out: AK-based Prestwick Library Screening Results, A. baumannii (increase in extracellular AK activity).
Setting [14] is: 384-well format, cutoff for positive-scoring molecules 3-fold increase, read-out: AK-based Prestwick Library Screening Results, P. aeruginosa (increase in extracellular AK activity).
The mark [15] stands for this setting: 384-well format, cutoff for positive-scoring molecules 3-fold increase, read-out: AK-based Prestwick Library Screening Results, E. cloacae (increase in extracellular AK activity).
Where [16] appears, read: 384-well format, cutoff for positive-scoring molecules 3-fold increase, read-out: AK-based Prestwick Library Screening Results, E. coli (increase in extracellular AK activity).
The mark [17] stands for this setting: cutoff for positive-scoring molecules 3-fold increase.
Setting [18] is: 384-well format, cutoff for positive-scoring molecules 3-fold increase.
[19] abbreviates: planktonic E. faecium, positive cutoff 3-fold increase, read-out: AK-based Prestwick library screening result, E. faecium (fold increase in extracellular AK activity).
[20] abbreviates: planktonic S. aureus, positive cutoff 3-fold increase, read-out: AK-based Prestwick library screening result, S. aureus (fold increase in extracellular AK activity).
Where [21] appears, read: planktonic K. pneumoniae, positive cutoff 3-fold increase, read-out: AK-based Prestwick library screening result, K. pneumoniae (fold increase in extracellular AK activity).
Setting [22] is: planktonic A. baumannii, positive cutoff 3-fold increase, read-out: AK-based Prestwick library screening result, A. baumannii (fold increase in extracellular AK activity).
The mark [23] stands for this setting: planktonic P. aeruginosa, positive cutoff 3-fold increase, read-out: AK-based Prestwick library screening result, P. aeruginosa (fold increase in extracellular AK activity).
The mark [24] stands for this setting: planktonic E. cloacae, positive cutoff 3-fold increase, read-out: AK-based Prestwick library screening result, E. cloacae (fold increase in extracellular AK activity).
[25] abbreviates: planktonic E. coli, positive cutoff 3-fold increase, read-out: AK-based Prestwick library screening result, E. coli (fold increase in extracellular AK activity).

On to `C=C1[C@@H]2CC[C@H]3[C@]4(C)C[C@H](O[C@@H]5O[C@H](CO)[C@@H](OS(=O)(=O)O)[C@H](OS(=O)(=O)O)[C@H]5OC(=O)CC(C)C)C[C@@H](C(=O)O)[C@H]4CC[C@]3(C2)[C@@H]1O` [Atractyloside potassium salt], for which the fold induction at 50 µM amounted to 0.9 in the experiment on E. faecium (setting [3]); 0.7 in experiment [1] (setting [4]); 0.6 with K. pneumoniae (setting [5]); 0.8 in experiment [2] (setting [6]); 0.6 in the experiment on P. aeruginosa (setting [7]); 0.8 in the experiment on E. cloacae (setting [8]). Also, in the experiment with E. coli (setting [9]), the fold induction at 50 µM came to 0.7.

Take `COc1ccc(CC2c3cc(OC)c(OC)cc3CC[N+]2(C)CCC(=O)OCCCCCOC(=O)CC[N+]2(C)CCc3cc(OC)c(OC)cc3C2Cc2ccc(OC)c(OC)c2)cc1OC` (stereo not shown) [Atracurium besylate]: the fold induction at 50 µM with E. faecium (setting [10]) came to 0.8; in experiment [1] (setting [11]), 0.5; with K. pneumoniae (setting [12]) it was 0.5; in experiment [2] (setting [13]), 0.4; in the experiment with P. aeruginosa (setting [14]), 0.4; in the experiment on E. cloacae (setting [15]), 0.3. For the same molecule, in the experiment on E. coli (setting [16]), the fold induction at 50 µM is 0.5.

For `CC1=CC(=O)C2=C(C)C[C@H](O)[C@@H]3[C@H](OC(=O)[C@H]3C)[C@H]12` [Austricine hydrate], the fold induction at 50 µM is 1.1 in the experiment with E. faecium (setting [3]); 1.2 in experiment [1] (setting [4]); 1 with K. pneumoniae (setting [5]); 1 in experiment [2] (setting [6]); 1.1 in the experiment with P. aeruginosa (setting [7]); 1.3 in the experiment with E. cloacae (setting [8]). In the experiment with E. coli (setting [9]), the fold induction at 50 µM was 1.2.

Consider `OC(c1ccccc1)(c1ccccc1)C1CCNCC1` [Azacyclonol], for which the fold induction at 50 µM in the experiment on E. faecium (384-well format, […], read-out: AK-based Prestwick Library Screening Results, E. faecium (increase in extracellular AK activity)) was 0.9; in experiment [1] (384-well format, […], read-out: AK-based Prestwick Library Screening Results, S. aureus (increase in extracellular AK activity)), 0.7; in the experiment with K. pneumoniae (384-well format, […], read-out: AK-based Prestwick Library Screening Results, K. pneumoniae (increase in extracellular AK activity)), 0.6; in experiment [2] (384-well format, […], read-out: AK-based Prestwick Library Screening Results, A. baumannii (increase in extracellular AK activity)), 0.6; in the experiment with P. aeruginosa (384-well format, […], read-out: AK-based Prestwick Library Screening Results, P. aeruginosa (increase in extracellular AK activity)), 0.6; with E. cloacae (384-well format, […], read-out: AK-based Prestwick Library Screening Results, E. cloacae (increase in extracellular AK activity)), 0.9. Further, in the experiment with E. coli (384-well format, […], read-out: AK-based Prestwick Library Screening Results, E. coli (increase in extracellular AK activity)), the fold induction at 50 µM was 0.6.

As for `Nc1ncn([C@@H]2O[C@H](CO)[C@@H](O)[C@H]2O)c(=O)n1` [Azacytidine-5], the “AK-based Prestwick Library Screening Results, E. faecium (fold increase in extracellular AK activity)” value in the experiment on E. faecium (setting [17]) is 1.0. Besides, the “AK-based Prestwick Library Screening Results, S. aureus (fold increase in extracellular AK activity)” value in experiment [1] (setting [17]) was 1.2. Moreover, the “AK-based Prestwick Library Screening Results, K. pneumoniae (fold increase in extracellular AK activity)” value in the experiment on K. pneumoniae (setting [17]) turned out to be 0.9. In addition, in experiment [2] (setting [17]), the “AK-based Prestwick Library Screening Results, A. baumannii (fold increase in extracellular AK activity)” value amounted to 1.4. For the same molecule, the “AK-based Prestwick Library Screening Results, P. aeruginosa (fold increase in extracellular AK activity)” value in the experiment with P. aeruginosa (setting [17]) is 1.2. Also, in the experiment with E. cloacae (setting [17]), the “AK-based Prestwick Library Screening Results, E. cloacae (fold increase in extracellular AK activity)” value is recorded as 1.5. In addition, the “AK-based Prestwick Library Screening Results, E. coli (fold increase in extracellular AK activity)” value in the experiment on E. coli (setting [17]) is on record as 2.2.

On to `Nc1nc(O)c2[nH]nnc2n1` [Azaguanine-8], for which the “AK-based Prestwick Library Screening Results, E. faecium (increase in extracellular AK activity)” value in the experiment on E. faecium (setting [18]) came out at 0.8. Moreover, the “AK-based Prestwick Library Screening Results, S. aureus (increase in extracellular AK activity)” value in experiment [1] (setting [18]) was determined as 0.6. Also, the “AK-based Prestwick Library Screening Results, K. pneumoniae (increase in extracellular AK activity)” value with K. pneumoniae (setting [18]) was 0.3. In experiment [2] (setting [18]), the “AK-based Prestwick Library Screening Results, A. baumannii (increase in extracellular AK activity)” value is given as 0.3. Besides, the “AK-based Prestwick Library Screening Results, P. aeruginosa (increase in extracellular AK activity)” value in the experiment with P. aeruginosa (setting [18]) turned out to be 0.3. In the experiment with E. cloacae (setting [18]), the “AK-based Prestwick Library Screening Results, E. cloacae (increase in extracellular AK activity)” value came out at 0.3. For the same molecule, the “AK-based Prestwick Library Screening Results, E. coli (increase in extracellular AK activity)” value in the experiment on E. coli (setting [18]) is 0.4.

For `O=C(CCCN1CCN(c2ccccn2)CC1)c1ccc(F)cc1` [Azaperone], the fold induction at 50 µM in the experiment with E. faecium (setting [19]) came out at 1; in experiment [1] (setting [20]), 1.2; in the experiment on K. pneumoniae (setting [21]) it was 1; in experiment [2] (setting [22]) it was 1.2; with P. aeruginosa (setting [23]), 1; with E. cloacae (setting [24]) it was 1.9. The fold induction at 50 µM in the experiment on E. coli (setting [25]) amounted to 1.1.

For the molecule `CCCC1C(=O)N2C(N(C)C)=Nc3ccc(C)cc3N2C1=O` (stereo not shown) [Azapropazone], the fold induction at 50 µM was found to be 1 in the experiment on E. faecium (setting [19]); 0.8 in experiment [1] (setting [20]); 0.9 in the experiment on K. pneumoniae (setting [21]); 0.9 in experiment [2] (setting [22]); 1 in the experiment with P. aeruginosa (setting [23]); 1.5 with E. cloacae (setting [24]). Also, the fold induction at 50 µM with E. coli (setting [25]) turned out to be 1.1.

Consider `Cn1cnc([N+](=O)[O-])c1Sc1ncnc2nc[nH]c12` [Azathioprine], for which the fold induction at 50 µM with E. faecium (setting [10]) is 0.8; in experiment [1] (setting [11]) it was 0.7; with K. pneumoniae (setting [12]), 0.5; in experiment [2] (setting [13]), 0.7; in the experiment on P. aeruginosa (setting [14]), 0.6; in the experiment on E. cloacae (setting [15]), 0.8. In addition, the fold induction at 50 µM in the experiment with E. coli (setting [16]) worked out at 0.6.

Regarding `Cc1n[nH]c(=O)[nH]c1=O` [Azathymine, 6], in the experiment with E. faecium (planktonic E. faecium, 384-well, cutoff for positive-scoring molecules 3-fold increase), the “AK-based Prestwick Library Screening Results: E. faecium (increase in extracellular AK activity)” value was determined as 0.9. Moreover, the “AK-based Prestwick Library Screening Results: S. aureus (increase in extracellular AK activity)” value in experiment [1] (planktonic S. aureus, 384-well, cutoff for positive-scoring molecules 3-fold increase) was 0.4. Further, the “AK-based Prestwick Library Screening Results: K. pneumoniae (increase in extracellular AK activity)” value in the experiment on K. pneumoniae (planktonic K. pneumoniae, 384-well, cutoff for positive-scoring molecules 3-fold increase) is 0.5. The “AK-based Prestwick Library Screening Results: A. baumannii (increase in extracellular AK activity)” value in experiment [2] (planktonic A. baumannii, 384-well, cutoff for positive-scoring molecules 3-fold increase) came out at 0.5. Moreover, the “AK-based Prestwick Library Screening Results: P. aeruginosa (increase in extracellular AK activity)” value in the experiment with P. aeruginosa (planktonic P. aeruginosa, 384-well, cutoff for positive-scoring molecules 3-fold increase) was determined as 0.6. In the experiment on E. cloacae (planktonic E. cloacae, 384-well, cutoff for positive-scoring molecules 3-fold increase), the “AK-based Prestwick Library Screening Results: E. cloacae (increase in extracellular AK activity)” value was 0.6. The “AK-based Prestwick Library Screening Results: E. coli (increase in extracellular AK activity)” value in the experiment with E. coli (planktonic E. coli, 384-well, […]) is 0.6.
